Results as given in the supplement of paper PMC10307832.

Columns and labels:
Test in all cases: relative viability (nuclei count vs DMSO), 5 days (fraction); higher = more cells survive
[1] = compound: CC(C)C[C@H](NC(=O)[C@H](Cc1ccccc1)NC(=O)c1cnccn1)B(O)O [Bortezomib] + CC(=O)c1c(C)c2cnc(Nc3ccc(N4CCNCC4)cn3)nc2n(C2CCCC2)c1=O [Palbociclib] (partner 0.5 µM)
Outline: (§1)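 For relative viability, nuclei counts in treated wells were divided by those in vehicle wells. Lung cancer cell lines had been pin-tool dosed in 1536-well plates the day after seeding and cultured for 5 days, then fixed and stained in one step (final 0.05% Triton X-100, 1% formaldehyde, 1 ug/ml Hoechst) and imaged at 4×. Doses were one drug alone or a fixed anchor-drug dose plus five library-drug doses (not always all listed) in √10 steps, and values are duplicate-plate medians.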

[2] = compound: CC(C)C[C@H](NC(=O)[C@H](Cc1ccccc1)NC(=O)c1cnccn1)B(O)O [Bortezomib] + O=C(c1cc(Cc2n[nH]c(=O)c3ccccc23)ccc1F)N1CCN(C(=O)C2CC2)CC1 [Olaparib] (partner 8 µM)
Outline: as §1

[3] = compound: CC(C)C[C@H](NC(=O)[C@H](Cc1ccccc1)NC(=O)c1cnccn1)B(O)O [Bortezomib] + Nc1nc2[nH]cc(CCc3ccc(C(=O)N[C@@H](CCC(=O)O)C(=O)O)cc3)c2c(=O)[nH]1 [Pemetrexed] (partner 0.2 µM)
Outline: as §1

[4] = compound: CC1=CC(=NN1)NC2=CC(=NC(=N2)/C=C/C3=CC=CC=C3)N4CCN(CC4)C + CS(=O)(=O)CCNCc1ccc(-c2ccc3ncnc(Nc4ccc(OCc5cccc(F)c5)c(Cl)c4)c3c2)o1 [Lapatinib] (partner 2 µM)
Outline: as §1

NCI-H650
relative viability ([1]; first compound 0.0002 µM): 0.335 | relative viability ([1]; first compound 0.000632 µM): 0.27 | relative viability ([1]; first compound 0.002 µM): 0.31 | relative viability ([1]; first compound 0.006325 µM): 0.243 | relative viability ([1]; first compound 0.02 µM): 0.149 | relative viability ([2]; first compound 0.0002 µM): 0.372 | relative viability ([2]; first compound 0.000632 µM): 0.435 | relative viability ([2]; first compound 0.002 µM): 0.398 | relative viability ([2]; first compound 0.006325 µM): 0.165 | relative viability ([2]; first compound 0.02 µM): 0.102 | relative viability ([3]; first compound 0.0002 µM): 0.914 | relative viability ([3]; first compound 0.000632 µM): 0.997 | relative viability ([3]; first compound 0.002 µM): 0.878 | relative viability ([3]; first compound 0.006325 µM): 0.85 | relative viability ([3]; first compound 0.02 µM): 0.16 | relative viability ([4]; first compound 0.08 µM): 0.804 | relative viability ([4]; first compound 0.253 µM): 1.15 | relative viability ([4]; first compound 0.8 µM): 0.839 | relative viability ([4]; first compound 2.53 µM): 0.378 | relative viability ([4]; first compound 8 µM): 0.271
